From patent US6867284B1, “Peptide inhibitors of hepatitis C virus NS3 protease” (Istituto di Ricerche di Biologia Molecolare P. Angeletti …, priority 1998, dated 2005) come the findings set out here.

Square brackets hold non-standard residues; d marks the D form. Peptide text beside a SMILES is read from it. * marks the point of attachment. Dip = N[C@H](C(=O)O)C(c1ccccc1)c1ccccc1; X5 = O=C(c1nc2ccccc2s1)C(CC(F)F)N*; X1 = O=C(c1ncc[nH]1)C(CC(F)F)N*; Cha = N[C@@H](CC1CCCCC1)C(=O)O; X2 = O=C(c1ccco1)C(CC(F)F)N*; X4 = COC(=O)C(=O)C(CC(F)F)N*

In general, IC50 refers to the concentration at which inhibition is half-maximal.

T1 sequence (P26663 1027-1208, other chains not shown): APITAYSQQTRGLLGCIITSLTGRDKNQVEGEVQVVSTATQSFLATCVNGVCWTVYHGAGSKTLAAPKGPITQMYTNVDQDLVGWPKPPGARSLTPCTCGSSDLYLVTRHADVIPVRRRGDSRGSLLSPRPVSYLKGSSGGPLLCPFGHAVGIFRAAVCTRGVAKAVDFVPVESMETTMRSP

One assay addresses T1, HCV NS3 protease (Hepatitis C virus genotype 1b, UniProt P26663).
T1 construct: an NS3/4A complex comprising the NS3 protease domain
The experiment in a line: Inhibition of NS3 protease (HPLC cleavage assay, NS3/4A complex with Pep4AK, substrate peptide 4AB). Type of assay: biochemical. The following applies: Table 1 hexapeptides, cells printed in nM; read-out: IC50. The protocol:
Buffer solutions containing 80 μM Pep4AK were preincubated for 10 minutes with 10-200 nM protease and reactions were started by addition of substrate. Six duplicate data points at different substrate concentrations were used to calculate kinetic parameters. Incubation times were chosen in order to obtain <7% substrate conversion and reactions were stopped by addition of 40 μl 1% TFA. Cleavage of peptide substrates was determined by HPLC using a Merck-Hitachi chromatograph equipped with an autosampler. 80 μl samples were injected on a Lichrospher C18 reversed phase cartridge column (4×74 mm, 5 μm, Merck) and fragments were separated using a 10-40% acetonitrile gradient a 5%/min using a flow rate of 2.5 ml/min. Peak detection was accomplished by monitoring both the absorbance at 220 nm and tyrosine fluorescence (λex=260 nm, λem=305 nm). Cleavage products were quantitated by integration of chromatograms with respect to appropriate standards. Kinetic parameters were calculated from nonlinear least-squares fit of initial rates as a function of substrate concentration with the help of a Kaleidagraph software, assuming Michaelis-Menten kinetics.
Ki values of peptide inhibitors were calculated from substrate titration experiments performed in the presence of increasing amounts of inhibitor. Experimental data sets were simultaneously fitted to eq.1 using a multicurve fit macro with the help of a Sigmaplot software: V=(VmaxS)/(Km(1+[…])+S); (eq.1)
Alternatively, Ki values were derived from IC50 values, calculated using a four-parameter logistic function, according to eq.2: IC50−(1+S/Km)Ki (eq.2)
Take `CC(=O)N[C@@H](CC(=O)O)C(=O)N[C@@H](CCC(=O)O)C(=O)N[C@H](C(=O)N[C@@H](CCC(=O)O)C(=O)N[C@@H](CC1CCCCC1)C(=O)NC(CC(F)F)C(=O)c1nc2ccccc2s1)C(c1ccccc1)c1ccccc1` (some centres unmarked) [Compound 1i] (Ac-DE[Dip]E[Cha]-X5): the IC50 stood at 150 nM.

For the molecule `COC(=O)C(=O)C(CC(F)F)NC(=O)[C@H](CC1CCCCC1)NC(=O)[C@H](CCC(=O)O)NC(=O)[C@@H](NC(=O)[C@H](CCC(=O)O)NC(=O)[C@H](CC(=O)O)NC(C)=O)C(c1ccccc1)c1ccccc1` (some centres unmarked) [Compound 1f] (Ac-DE[Dip]E[Cha]-X4), the IC50 came out at 800 nM.

The same assay, now with this note: Table 1 hexapeptides, cells printed in μM; read-out: IC50.
Consider `CC(=O)N[C@@H](CC(=O)O)C(=O)N[C@@H](CCC(=O)O)C(=O)N[C@H](C(=O)N[C@@H](CCC(=O)O)C(=O)N[C@@H](CC1CCCCC1)C(=O)NC(CC(F)F)C(=O)O)C(c1ccccc1)c1ccccc1` (single isomer, unassigned) [Compound 1b (D)], for which the IC50 was found to be 1000 nM.

`CC(=O)N[C@@H](CC(=O)O)C(=O)N[C@@H](CCC(=O)O)C(=O)N[C@H](C(=O)N[C@@H](CCC(=O)O)C(=O)N[C@@H](CC1CCCCC1)C(=O)NC(CC(F)F)C(=O)c1ccco1)C(c1ccccc1)c1ccccc1` (some centres unmarked) [Compound 1m] (Ac-DE[Dip]E[Cha]-X2): the IC50 stood at 7000 nM.

As to `CC(=O)N[C@@H](CC(=O)O)C(=O)N[C@@H](CCC(=O)O)C(=O)N[C@H](C(=O)N[C@@H](CCC(=O)O)C(=O)N[C@@H](CC1CCCCC1)C(=O)NC(CC(F)F)C(=O)c1ncc[nH]1)C(c1ccccc1)c1ccccc1` (some centres unmarked) [Compound 1l] (Ac-DE[Dip]E[Cha]-X1), the IC50 was found to be 6000 nM.

The assay is the same for the next values; noted with them: Table 2 tetrapeptides and tripeptides; read-out: IC50.
`CCC(C)[C@H](NC(=O)OC(C)(C)C)C(=O)N[C@@H](CC(C)C)C(=O)NC(CC(F)F)C(=O)C(=O)O` (some centres unmarked) [Compound 4f]: the 50% inhibitory concentration (IC50) stood at 1000 nM.

In the case of `CCC(C)[C@H](NC(=O)OCc1ccccc1)C(=O)N[C@H](C(=O)NC(CC(F)F)C(=O)C(=O)O)C(C)C` (some centres unmarked) [Compound 3a], the IC50 amounted to 16000 nM.

Turning to `CC(C)C[C@H](NC(=O)[C@H](Cc1cccs1)NC(=O)OC(C)(C)C)C(=O)NC(CC(F)F)C(=O)C(=O)O` (some centres unmarked) [Compound 5s], the 50% inhibitory concentration (IC50) amounted to 3800 nM.

Turning to `CC(C)C[C@H](NC(=O)[C@H](CC(=O)O)NC(=O)OC(C)(C)C)C(=O)NC(CC(F)F)C(=O)C(=O)O` (some centres unmarked) [Compound 5m], the IC50 came to 1600 nM.

With `CC(C)C[C@H](NC(=O)[C@H](Cc1ccc(Cl)c(Cl)c1)NC(=O)OC(C)(C)C)C(=O)NC(CC(F)F)C(=O)C(=O)O` (some centres unmarked) [Compound 5r], the IC50 came out at 5800 nM.

As for `CC(=O)N[C@H]1Cc2cccc(c2)Oc2ccc(cc2)C[C@@H](C(=O)NC(CC(F)F)C(=O)C(=O)O)NC(=O)[C@H](CCC(=O)O)NC1=O` (some centres unmarked) [Compound 2c], the IC50 came out at 47000 nM.

On to `CCC(C)[C@H](NC(=O)NCc1cc(C(F)(F)F)cc(C(F)(F)F)c1)C(=O)N[C@@H](CC(C)C)C(=O)NC(CC(F)F)C(=O)C(=O)O` (some centres unmarked) [Compound 4b], for which the IC50 is 39000 nM.

Turning to `CC(C)C[C@H](NC(=O)[C@@H](NC(=O)OC(C)(C)C)C(C)C)C(=O)NC(CC(F)F)C(=O)C(=O)O` (some centres unmarked) [Compound 5d], the IC50 came to 500 nM.

In the case of `CCC(C)[C@H](NC(=O)OCc1ccccc1)C(=O)N[C@@H](CC)C(=O)NC(CC(F)F)C(=O)C(=O)O` (some centres unmarked) [Compound 3e], the IC50 was 3000 nM.

For `CC(C)C[C@H](NC(=O)[C@H](CCC(N)=O)NC(=O)OC(C)(C)C)C(=O)NC(CC(F)F)C(=O)C(=O)O` (some centres unmarked) [Compound 5k], the IC50 turned out to be 2100 nM.

As for `CCC(C)[C@H](NC(=O)OCc1ccccc1)C(=O)N[C@@H](CC(C)C)C(=O)NC(CC(F)F)C(=O)C(=O)O` (some centres unmarked) [Compound 3c], the 50% inhibitory concentration (IC50) was 1400 nM.

On to `CC(C)C[C@H](NC(=O)[C@@H](NC(=O)OCc1ccccc1)C(C)C)C(=O)NC(C=O)CC(F)F` (some centres unmarked) [Compound 6b], for which the IC50 turned out to be 50000 nM.

Staying with this assay, now noted: Table 3 capped dipeptide keto acids; read-out: IC50.
For `CC(C)C[C@H](NC(=O)Cc1cccs1)C(=O)NC(CC(F)F)C(=O)C(=O)O` (single isomer, unassigned) [Compound 8f], the IC50 was found to be 42000 nM.

`CC(C)C[C@H](NC(=O)CC1(CC(=O)O)OCCO1)C(=O)NC(CC(F)F)C(=O)C(=O)O` (single isomer, unassigned) [Compound 7p]: the IC50 came out at 15000 nM.

`CC(C)C[C@H](NC(=O)CC1(CC(=O)NS(=O)(=O)c2ccccc2)CCCC1)C(=O)NC(CC(F)F)C(=O)C(=O)O` (mixture of isomers) [Compound 7n]: the IC50 is 7000 nM.

As for `COc1ccc([C@@H](O)C(=O)N[C@@H](CC(C)C)C(=O)NC(CC(F)F)C(=O)C(=O)O)cc1` (mixture of isomers) [Compound 8p], the IC50 was determined as 25000 nM.

For the molecule `CCCC(CCC)C(=O)N[C@@H](CC(C)C)C(=O)NC(CC(F)F)C(=O)C(=O)O` (mixture of isomers) [Compound 7c], the IC50 amounted to 78000 nM.

As to `CC(C)C[C@H](NC(=O)OCc1ccccc1)C(=O)NC(CC(F)F)C(=O)C(=O)O` (single isomer, unassigned) [Compound 7a], the IC50 was 74000 nM.

Consider `CC(C)C[C@H](NC(=O)[C@H](O)C1CCCCC1)C(=O)NC(CC(F)F)C(=O)C(=O)O` (mixture of isomers) [Compound 8l], for which the IC50 amounted to 14000 nM.

Turning to `CC(C)C[C@H](NC(=O)C(Cc1ccccc1)c1ccccc1)C(=O)NC(CC(F)F)C(=O)C(=O)O` (mixture of isomers) [Compound 8j], the IC50 was determined as 100000 nM.

With `CC(C)C[C@H](NC(=O)[C@H](O)c1ccccc1)C(=O)NC(CC(F)F)C(=O)C(=O)O` (mixture of isomers) [Compound 8n], the IC50 was found to be 6000 nM.

As to `CC(C)C[C@H](NC(=O)CN(CC(=O)O)C(=O)OCc1ccccc1)C(=O)NC(CC(F)F)C(=O)C(=O)O` (single isomer, unassigned) [Compound 7i], the IC50 came out at 20000 nM.

With `CC(C)C[C@H](NC(=O)CC1(CC(=O)O)CCCC1)C(=O)NC(CC(F)F)C(=O)C(=O)O` (single isomer, unassigned) [Compound 7l], the IC50 is 1000 nM.

`CC(C)C[C@H](NC(=O)Cc1ccc(CC(=O)O)cc1)C(=O)NC(CC(F)F)C(=O)C(=O)O` (mixture of isomers) [Compound 8d]: the half-maximal inhibitory concentration (IC50) worked out at 7000 nM.

On to `CC(C)C[C@H](NC(=O)CCCC(=O)O)C(=O)NC(CC(F)F)C(=O)C(=O)O` (mixture of isomers) [Compound 7d], for which the IC50 was 6000 nM.

Consider `CC(C)C[C@H](NC(=O)C1OC(=O)CC12CCCC2)C(=O)NC(CC(F)F)C(=O)C(=O)O` (mixture of isomers) [Compound 8m], for which the half-inhibitory concentration (IC50) is 60000 nM.

The same assay, now with this note: Table 4 indoline keto acids and related; read-out: IC50.
As to `CC(C)C[C@H](NC(=O)C1(C2CCCCC2)Cc2ccccc2N1)C(=O)NC(CC(F)F)C(=O)C(=O)O` (mixture of isomers) [Compound 9k], the IC50 is 69000 nM.

Take `CC(C)C[C@H](NC(=O)C1(CC2CCC2)Cc2ccccc2N1)C(=O)NC(CC(F)F)C(=O)C(=O)O` (mixture of isomers) [Compound 9j]: the IC50 came to 34000 nM.

In the case of `CC(C)C[C@H](NC(=O)C1Cc2ccccc2N1)C(=O)NC(CC(F)F)C(=O)C(=O)O` (single isomer, unassigned) [Compound 9a], the concentration for half-maximal inhibition (IC50) was 50000 nM.

On to `CCC(C)CC1(C(=O)N[C@@H](CC(C)C)C(=O)NC(CC(F)F)C(=O)C(=O)O)Cc2ccccc2N1` (mixture of isomers) [Compound 9h], for which the IC50 came out at 81000 nM.

`CC(C)C[C@H](NC(=O)C1Cc2ccc(OC3CCCC3)cc2N1)C(=O)NC(CC(F)F)C(=O)C(=O)O` (single isomer, unassigned) [Compound 10e]: the IC50 came out at 18000 nM.

`CC(C)C[C@H](NC(=O)C1(Cc2ccc(Cl)s2)Cc2ccccc2N1)C(=O)NC(CC(F)F)C(=O)C(=O)O` (mixture of isomers) [Compound 9w]: the IC50 was found to be 3000 nM.

For the molecule `CC(C)C[C@H](NC(=O)C1(C(C)c2ccccc2)Cc2ccccc2N1)C(=O)NC(CC(F)F)C(=O)C(=O)O` (mixture of isomers) [Compound 9p], the IC50 was determined as 88000 nM.

On to `CC(C)C[C@H](NC(=O)C1(Cc2ccccc2)Cc2ccccc2N1)C(=O)NC(CC(F)F)C(=O)C(=O)O` (mixture of isomers) [Compound 9o], for which the IC50 was 45000 nM.

For `CC(C)C[C@H](NC(=O)C1Cc2ccc(OC3CCS(=O)(=O)CC3)cc2N1)C(=O)NC(CC(F)F)C(=O)C(=O)O` (single isomer, unassigned) [Compound 10i], the IC50 amounted to 30000 nM.

`CC(C)C[C@H](NC(=O)C1(CC(C)C)Cc2ccc(Oc3ccccc3)cc2N1)C(=O)NC(CC(F)F)C(=O)C(=O)O` (mixture of isomers) [Compound 10c]: the IC50 is 100000 nM.

Regarding `CC(C)C[C@H](NC(=O)C1(CC2CC2)Cc2ccccc2N1)C(=O)NC(CC(F)F)C(=O)C(=O)O` (single isomer, unassigned) [Compound 9i], the half-inhibitory concentration (IC50) was 20000 nM.

Regarding `CC(C)C[C@H](NC(=O)C1Cc2ccc(OCC(=O)O)cc2N1)C(=O)NC(CC(F)F)C(=O)C(=O)O` (single isomer, unassigned) [Compound 10f], the IC50 came to 10000 nM.

Turning to `CC(C)C[C@H](NC(=O)C1(Cc2cccc(C(=O)O)c2)Cc2ccccc2N1)C(=O)NC(CC(F)F)C(=O)C(=O)O` (single isomer, unassigned) [Compound 9u], the IC50 was 800 nM.
